Test results as given in patent publication US6914045B2, “Glycopeptide antibiotics” (Wyeth Holdings Corporation, priority 2001, dated 2005).
≈ marks a conversion by molar mass, not a printed value.

How the values were obtained:
Experiment in all cases: in vitro antibacterial evaluation, MIC by broth dilution
Type in all cases: cell-based
[1] = test system: Streptococcus sp.; conditions: broth dilution, 18 hours at 35° C.
Outline: (§1)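 Read-out: the lowest concentration at which the test strain fails to grow. Serial dilutions (64-0.06 μg/mL) in Muller-Hinton II […], 5×10^5 CFU/mL inoculum, NCCLS M7-A2 procedure.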

[2] = test system: Staphylococcus sp.; conditions: broth dilution, 18 hours at 35° C.
Outline: as §1

[3] = test system: Enterococcus sp.; conditions: broth dilution, 18 hours at 35° C.
Outline: as §1

[4] = test system: Escherichia coli; conditions: 18 hours at 35° C.
Outline: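 Step 1: dilute antibiotic across 64-0.06 μg/mL in Muller-Hinton II […]. Step 2: inoculate at 5×10^5 CFU/mL.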

- MIC Streptococcus agalactiae (GC 4564) [1]: 1 µg/mL (≈ 0.7 µM)
- MIC Streptococcus pneumoniae (ATCC 6301) [1]: 0.25 µg/mL (≈ 0.175 µM)
- MIC Streptococcus pneumoniae (GC 1894) [1]: 0.25 µg/mL (≈ 0.175 µM)
- MIC Streptococcus pneumoniae (GC 4565) [1]: 0.5 µg/mL (≈ 0.35 µM)
- MIC Streptococcus pyogenes (GC 4563) [1]: 0.12 µg/mL (≈ 0.084 µM)
- MIC Streptococcus pneumoniae (ATCC 6301) ([1]; strain ATCC 6301): 0.25 µg/mL (≈ 0.175 µM)
- MIC Streptococcus pneumoniae (GC 1894) ([1]; strain GC 1894): 0.25 µg/mL (≈ 0.175 µM)
- MIC Streptococcus pyogenes (GC 4563) ([1]; strain GC 4563): 0.12 µg/mL (≈ 0.084 µM)
- MIC Streptococcus agalactiae (GC 4564) ([1]; strain GC 4564): 1 µg/mL (≈ 0.7 µM)
- MIC Streptococcus pneumoniae (GC 4565) ([1]; strain GC 4565): 0.5 µg/mL (≈ 0.35 µM)
- MIC Coagulase Negative Staphylococcus (GC 4547) [2]: 2 µg/mL (≈ 1.4 µM)
- MIC Coagulase Negative Staphylococcus (GC 4548) [2]: 2 µg/mL (≈ 1.4 µM)
- MIC Coagulase Negative Staphylococcus (GC 4549) [2]: 2 µg/mL (≈ 1.4 µM)
- MIC Coagulase Negative Staphylococcus (GC 4551) [2]: 4 µg/mL (≈ 2.8 µM)
- MIC Coagulase Negative Staphylococcus (GC 6257) [2]: 1 µg/mL (≈ 0.7 µM)
- MIC Staphylococcus aureus (ATCC 29213) [2]: 0.5 µg/mL (≈ 0.35 µM)
- MIC Staphylococcus aureus (GC 1131) [2]: 0.5 µg/mL (≈ 0.35 µM)
- MIC Staphylococcus aureus (GC 3051) [2]: 0.5 µg/mL (≈ 0.35 µM)
- MIC Staphylococcus aureus (GC 3053) [2]: 0.5 µg/mL (≈ 0.35 µM)
- MIC Staphylococcus aureus (GC 4541) [2]: 0.5 µg/mL (≈ 0.35 µM)
- MIC Staphylococcus aureus (GC 4542) [2]: 0.5 µg/mL (≈ 0.35 µM)
- MIC Staphylococcus aureus (GC 4544) [2]: 0.5 µg/mL (≈ 0.35 µM)
- MIC Staphylococcus aureus (GC 4545) [2]: 0.5 µg/mL (≈ 0.35 µM)
- MIC Staphylococcus aureus-SMITH (GC 4543) [2]: 0.5 µg/mL (≈ 0.35 µM)
- MIC Staphylococcus aureus (ATCC 29213) ([2]; strain ATCC 29213): 0.5 µg/mL (≈ 0.35 µM)
- MIC Staphylococcus aureus (GC 1131) ([2]; strain GC 1131): 0.5 µg/mL (≈ 0.35 µM)
- MIC Staphylococcus aureus (GC 3051) ([2]; strain GC 3051): 0.5 µg/mL (≈ 0.35 µM)
- MIC Staphylococcus aureus (GC 3053) ([2]; strain GC 3053): 0.5 µg/mL (≈ 0.35 µM)
- MIC Staphylococcus aureus (GC 4541) ([2]; strain GC 4541): 0.5 µg/mL (≈ 0.35 µM)
- MIC Staphylococcus aureus (GC 4542) ([2]; strain GC 4542): 0.5 µg/mL (≈ 0.35 µM)
- MIC Staphylococcus aureus (GC 4544) ([2]; strain GC 4544): 0.5 µg/mL (≈ 0.35 µM)
- MIC Staphylococcus aureus (GC 4545) ([2]; strain GC 4545): 0.5 µg/mL (≈ 0.35 µM)
- MIC Enterococcus avium (GC 4558) ([3]; Enterococcus avium (GC 4558)): 0.5 µg/mL (≈ 0.35 µM)
- MIC Enterococcus faecalis (ATCC 29212) ([3]; Enterococcus faecalis (ATCC 29212)): 0.5 µg/mL (≈ 0.35 µM)
- MIC Enterococcus faecalis (GC 4553) ([3]; Enterococcus faecalis (GC 4553)): 0.5 µg/mL (≈ 0.35 µM)
- MIC Enterococcus faecalis (GC 4554) ([3]; Enterococcus faecalis (GC 4554)): >0.5 µg/mL
- MIC Enterococcus faecalis (GC 6189) ([3]; Enterococcus faecalis (GC 6189)): 0.5 µg/mL (≈ 0.35 µM)
- MIC Enterococcus faecium (GC 2243) ([3]; Enterococcus faecium (GC 2243)): 16 µg/mL (≈ 11.2 µM)
- MIC Enterococcus faecium (GC 4556) ([3]; Enterococcus faecium (GC 4556)): 16 µg/mL (≈ 11.2 µM)
- MIC Enterococcus faecium (GC 4557) ([3]; Enterococcus faecium (GC 4557)): 2 µg/mL (≈ 1.4 µM)
- MIC Enterococcus faecalis (GC 2242) [3]: 0.5 µg/mL (≈ 0.35 µM)
- MIC Enterococcus faecalis (GC 2691) [3]: 0.5 µg/mL (≈ 0.35 µM)
- MIC Enterococcus faecalis (GC 3059) [3]: 0.5 µg/mL (≈ 0.35 µM)
- MIC Enterococcus faecalis (GC 4552) [3]: >0.5 µg/mL
- MIC Enterococcus faecalis (ATCC 29212) ([3]; strain ATCC 29212): 0.5 µg/mL (≈ 0.35 µM)
- MIC Enterococcus faecalis (GC 2242) ([3]; strain GC 2242): 0.5 µg/mL (≈ 0.35 µM)
- MIC Enterococcus faecium (GC 2243) ([3]; strain GC 2243): 16 µg/mL (≈ 11.2 µM)
- MIC Enterococcus faecalis (GC 2691) ([3]; strain GC 2691): 0.5 µg/mL (≈ 0.35 µM)
- MIC Enterococcus faecalis (GC 3059) ([3]; strain GC 3059): 0.5 µg/mL (≈ 0.35 µM)
- MIC Enterococcus faecalis (GC 4552) ([3]; strain GC 4552): >0.5 µg/mL
- MIC Enterococcus faecalis (GC 4553) ([3]; strain GC 4553): 0.5 µg/mL (≈ 0.35 µM)
- MIC Enterococcus faecalis (GC 4554) ([3]; strain GC 4554): >0.5 µg/mL
- MIC Enterococcus faecium (GC 4556) ([3]; strain GC 4556): 16 µg/mL (≈ 11.2 µM)
- MIC Enterococcus faecium (GC 4557) ([3]; strain GC 4557): 2 µg/mL (≈ 1.4 µM)
- MIC Enterococcus avium (GC 4558) ([3]; strain GC 4558): 0.5 µg/mL (≈ 0.35 µM)
- MIC Enterococcus faecalis (GC 6189) ([3]; strain GC 6189): 0.5 µg/mL (≈ 0.35 µM)
- MIC Escherichia coli (ATCC 25922) ([4]; Escherichia coli (ATCC 25922)): >0.5 µg/mL
- MIC Escherichia coli (GC 4559) ([4]; Escherichia coli (GC 4559)): >0.5 µg/mL
- MIC Escherichia coli (GC 4560) ([4]; Escherichia coli (GC 4560)): 0.5 µg/mL (≈ 0.35 µM)
Compound: CC(c1ccccc1)C1NC(=O)CNC(=O)C(CO)NC(=O)C(C(O)C2CNC(=N)N2C2OC(CO)C(O)C(O)C2O)NC(=O)C(C(O)C2CNC(=N)N2)NC(=O)C(Cc2ccc(OC3OC(CO)C(OC4OC(COC(=O)NCc5ccccc5)C(O)C(O)C4O)C(O)C3O)cc2)NC1=O (stereo not drawn) [Example 257b]
- MIC Staphylococcus haemolyticus (GC 4546) [2]: 2 µg/mL (≈ 1.4 µM)
